Data on 1 molecule can be found in patent publication US6740680B1, “Pharmaceutical compositions to tetrac and methods of use thereof” (Becton Pharma, Inc., priority 1999, dated 2004).

The target in test [1] is T1, Monodeiodinase type 2 (Rattus norvegicus, UniProt P70551).
T1 construct: monodeiodinase type 2 assay using microsomol protein from brain cortex; from tissue; host or cells: brain cortex microsomal protein
T1 sequence (P70551 1-266): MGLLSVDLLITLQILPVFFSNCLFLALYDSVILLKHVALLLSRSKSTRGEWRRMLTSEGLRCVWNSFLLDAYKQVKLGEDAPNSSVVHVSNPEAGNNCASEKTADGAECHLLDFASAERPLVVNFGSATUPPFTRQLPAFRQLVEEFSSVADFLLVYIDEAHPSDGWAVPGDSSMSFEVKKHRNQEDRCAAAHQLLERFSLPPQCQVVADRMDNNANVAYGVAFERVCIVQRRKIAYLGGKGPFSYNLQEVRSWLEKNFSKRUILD
Description: Addition of Tetrac to monodeiodinase type 2 assay with microsomal protein from brain cortex. It counts as biochemical. Conditions: 1 fmol Tetrac/μg protein added. The procedure: (§1) Monodeiodinase type 1 and 2 activities. Monodeiodinase type 1 and type 2 activities were determined in tissue homogenates by measuring the release of radioiodide from [^125I]rT3 according to the method of Leonard and Rosenberg (Leonard, J. L. et al. Endocrinology (1980) 106: 444-451).
Monodeiodinase type 1 activity was measured in liver homogenates using 1 μM rT3 and 1 mM DTT with 10 min of incubation, whereas for heart, 0.01 μM rT3 and 10 mM DTT with 1 hour of incubation. Monodeiodinase type 2 activity was measured in brown adipose tissue (BAT) and cerebral cortex using 1 nM rT3, 10 mM DTT and 1 mM propylthiouracil (PTU) with 1 hour of incubation. Protein concentrations were measured by the method of Bradford (Bio-Rad Laboratories GmbH, Munich, Germany) with bovine gammaglobulin as the protein standard. In order to study the effect of circulating Tetrac on the enzyme activities, 2 rats were injected intraperitoneally with 10 μCi ^125I Tetrac and killed 6 hours later. The tissue homogenates were extracted with 3 volumes of ethanol-NH3 (97:3). After 10 minutes centrifugation at 15,000 g, the supernatant was vacuum dried and applied to TLC (Merck 254, Toluol, acetic acid, water: 2:2:1). […] The calculated tissue concentrations were: liver: 1.9, heart: 2.29 and brain cortex: 0.47 fluol Tetrac/μg protein. […]

For test [2], the system named is monodeiodinase type 1 mRNA. Description: Northern blot, hepatic monodeiodinase type 1 mRNA. It counts as in vivo, rat. To be noted: Liver. As for the experimental part: (§2) Seventy-nine male SIVZ rats were purchased from the breeder (Institut für Labortierkunde des Universität Zürich, Zürich, Switzerland). They were rendered hypothyroid by a single injection of [^131I]Na (100 μCi/rat) and before and throughout the experiment 0.02% 2-mercapto-1-methylimidazol (MMI) was added to drinking water. In order to have an euthyroid control group of similar weight and identical age, 10 rats received only MMI in the drinking water and 2 weeks before implanting the minipumps, MMI was withdrawn. Osmotic minipumps (secretion rate 0.25 μl/hour, duration 14 days) were implanted intraperitoneally (i.p.) 2 months after the injection of [^131I]Na. The minipumps were filled with T4 or Tetrac dissolved in 0.05 N NaOH, 2% BSA and 100,000 cpm [^125I]T4 or [^125I]Tetrac as control of their secretion rates. The infusion lasted 13 days. 0, 1.5, 4.5, 13.5 and 40.5 nmol Tetrac/day/100 g or 0.5, 1.5, 4.5 and 13.5 nmol T4/day/100 g bodyweight (BW) (n=4/dose) were infused. An euthyroid control group was included. The animals were weighed every 2 days. Rats were sacrificed by decapitation and blood was collected and stored at −200° C. until use. Tissues (liver, heart, brown adipose tissue, cerebral cortex and pituitary) were removed rapidly, frozen in liquid nitrogen and stored at −700° C. until use.
(§3) Total RNA extraction and Northern Blot hybridization Total RNA was extracted with the method of Chomczynski and Sacchi (Chomczynski, P. and Sacchi, N. Anal. Biochem. (1987) 162: 156-159). […]
(§4) The amount of labeled mRNA was quantified by scanning laser densitometry (Phosphorimager, Molecular Dynamics; Sunnyvale, USA). Variations in RNA loading and membrane transfer were corrected by densitometric quantification of a negative photograph of 28S and 18S ribosomal RNA bands from ethidium bromide stained RNA gels. […]

Another test deals with TSH. Description: Suppression of TSH by Tetrac in humans.
Test [3] deals with Monodeiodinase type 2. Description: Monodeiodinase type 2 activity in brain cortex and brown adipose tissue of infused rats. It counts as in vivo, rat. Conditions: infused rats, remaining activity, adjusted group mean at the mean Ln (TSH) concentration. The procedure: as §2, §1
(§5) Monodeiodinase type 1 activity was measured in liver homogenates using 1 μM rT3 and 1 mM DTT with 10 min of incubation, whereas for heart, 0.01 μM rT3 and 10 mM DTT with 1 hour of incubation. Monodeiodinase type 2 activity was measured in brown adipose tissue (BAT) and cerebral cortex using 1 nM rT3, 10 mM DTT and 1 mM propylthiouracil (PTU) with 1 hour of incubation. Protein concentrations were measured by the method of Bradford (Bio-Rad Laboratories GmbH, Munich, Germany) with bovine gammaglobulin as the protein standard. In order to study the effect of circulating Tetrac on the enzyme activities, 2 rats were injected intraperitoneally with 10 μCi ^125I Tetrac and killed 6 hours later. The tissue homogenates were extracted with 3 volumes of ethanol-NH3 (97:3). After 10 minutes centrifugation at 15,000 g, the supernatant was vacuum dried and applied to TLC (Merck 254, Toluol, acetic acid, water: 2:2:1). In order to calculate the tissue concentrations, the highest serum Tetrac levels were used (406 pmol/ml). The calculated tissue concentrations were: liver: 1.9, heart: 2.29 and brain cortex: 0.47 fluol Tetrac/μg protein.

For a further test, the system named is β-MHC mRNA. Description: Northern blot, β-MHC mRNA in heart. The format is in vivo, rat. The procedure: as §2, §3, §4
Another test concerns Monodeiodinase type 1. Description: Monodeiodinase type 1 activity in liver and heart homogenates of infused rats. It counts as in vivo, rat. The procedure: as §2, §1, §5
For test [4], the system named is monodeiodinase type 2 mRNA. Description: Northern blot, monodeiodinase type 2 mRNA in pituitary. The format is in vivo, rat. Conditions: FIG. 5b, compared with T4, p=0.001. The procedure:
as §2, with “Rats were sacrificed by decapitation and blood was collected and stored at −200° C. until use. Tissues (liver, heart, brown adipose tissue, cerebral cortex and pituitary) were removed rapidly, frozen in liquid nitrogen and stored at −700° C. until use.” left out
as §4

Setting [5] is: infused rats, adjusted group mean at the mean Ln (TSH) concentration.

Description for TSH: A patient receiving 200 μg/day dose of T4 was withdrawn from T4 treatment and treated with Tetrac for 21 days with a dose of 2100 μg/day.

As for `O=C(O)Cc1cc(I)c(Oc2cc(I)c(O)c(I)c2)c(I)c1` [Tetrac, 3,3′,5,5′-tetraiodothyroacetic acid], at Monodeiodinase type 2 [1], the “Monodeiodinase type 2 activity, % of the full activity” value stood at 90.5%. Besides, in test [2] (at equal serum TSH concentration), the “Residual Monodeiodinase type 1 mRNA, Tetrac/T4 (activity of Tetrac in % of T4)” value is 49%. Also, the “Residual Monodeiodinase type 1 mRNA, adjusted mean” value in test [2] (setting [5]) came to 2.48 arbitrary units. Also, in the test with TSH (one patient withdrawn from T4, Tetrac 2100 μg/day, after 21 days), the TSH after treatment worked out at 6.3 mU/L. Besides, the “TSH before treatment (after T4 withdrawal)” value with TSH (same patient, start of Tetrac treatment) came to 151.0 mU/L. Further, the entries for the “Residual monodeiodinase type 2 activity, adjusted mean” value in the test with Monodeiodinase type 2 [3] (BAT) and in the test with Monodeiodinase type 2 [3] (Brain Cortex) were 28 and 27.7, respectively. For the same molecule, the “β-MHC mRNA, Tetrac/T4 (activity of Tetrac in % of T4)” value in the test on β-MHC mRNA was determined as 66%. The “β-MHC mRNA, adjusted mean” value in the test on β-MHC mRNA (setting [5]) is given as 328 arbitrary units. In addition, the “Residual Monodeiodinase type 1 activity, Tetrac/T4 (activity of Tetrac in % of T4)” value in the test on Monodeiodinase type 1 (Liver, at equal serum TSH concentration) worked out at 59%. The “Residual Monodeiodinase type 1 activity, adjusted mean” value with Monodeiodinase type 1 (Liver, infused rats, adjusted group mean at the mean Ln (TSH) concentration) is 106. The “Cardiac monodeiodinase type 1 activity, response to increasing doses (in words)” value with Monodeiodinase type 1 (heart, FIG. 2a, compared to T4, p<0.001) is “weak response”. Also, the “Inhibition of the mRNA levels of monodeiodinase type 2 (in words)” value in test [4] is listed as “clearly less efficient”.
